Results as given in US12459951B2, “Compounds that interact with RAS superfamily proteins for treatment of cancers, inflammatory diseases, rasopathies, and fibrotic disease” (SHY Therapeutics, LLC, priority 2022, dated 2025).

What was measured:
KRas wild type = test: Ras GTP Binding Domain Inhibition Assay (Ras Superfamily Assay); conditions: 20 μM compound; for KRas wild type + SOS: % inh.: with SOS; for KRas wild type: % inh.: without SOS
Excerpt: (§1) Biological Example 3: Ras GTP Binding Domain Inhibition Assay
(§2) The assays described in Example 3 are collectively referred to as the “Ras Superfamily Assay” throughout this application.
(§3) A Ras Superfamily Activity Assay (as disclosed in International Application No. PCT/US2018/038613, filed Jun. 20, 2018, which is incorporated by reference in its entirety) was used as a specific assay to evaluate compounds against the following for the following Ras Superfamily proteins: KRas wild type, KRas Q61H mutant, KRas G12C mutant, KRas G12D mutant, Rac-1, and Rho-A.
(§4) • 25 mM Tris-HCl, pH 7.4 • 27 mM KCl • 137 mM NaCl • 1 mM MgCl2 • 1 mM DTT Buffer-II: • 50 mM Tris-HCl, pH 7.0 • 1 mM MgCl2 • 1 mM DTT
(§5) The small GTPases proteins: KRas wild type. KRas Q61H mutant, KRas G12C mutant, KRas G12D mutants, Rac-1, and Rho-A were expressed as His-tagged proteins. In addition, the Guanosine nucleotide Exchange Factor (GEF) Sos protein (residues 556-1049) was expressed as a His-tagged protein. In cells, the guanine nucleotide exchange factor Sos protein promotes activation of Ras proteins by stimulating an exchange of GDP for GTP. The inclusion of Sos to the Ras GTP binding domain inhibition assay may be considered as an alternative representation of physiological cellular conditions for evaluating the inhibitory activity of some of the tested small molecules.
(§6) For the assay, all purified small GTPases proteins were diluted in Buffer-I or Buffer-II to a final concentration of 10-30 μg/mL. 200 μL of each diluted protein was added to a nickel-coated 96-well plate and incubated overnight at 4° C. Then the protein solution was discarded and 200 μL of Buffer-I or Buffer-II was added to each well in the presence of 1% DMSO. Compounds to be tested were added to the protein-coated wells at final concentration of 20 μM, and incubated for 3 hours at room temperature with and without 10-30 μg/mL of Sos added to the final hour of the incubation. When performing IC50 measurements a serial dilution of all tested concentrations was added. Then Cy3-GTP or Cy5-GTP was added to each well to a final concentration of 100 nM. The labeled GTP was incubated for 45 minutes at room temperature. Following GTP incubation, wells were washed 3× in Buffer-I or Buffer-II and 200 μL of Buffer-I or Buffer-II was added to each well. Following washes, the amount of bound labeled-GTP was measured using a SpectraMax M3 (Molecular Devices).

Rac-1 = target: T1, Rac-1 (Homo sapiens, UniProt P63000); test: as above; conditions: read-out: Rac-1: % inh.
T1 construct: made in house
Excerpt: as §1, §2, §3, §4, §5, §6

KRas G12D mutant = test: as above; conditions: 20 μM compound; for KRas G12D mutant + SOS: % inh.: with SOS; for KRas G12D mutant: % inh.: without SOS
Excerpt: as §1, §2, §3, §4, §5, §6

[1] = system: MiaPaca-2 (expressing KRAS G12C mutant); test: Proliferation Assay (Cell Viability Assay); assay type: cell-based; conditions: Homo sapiens, MIA PaCa-2; read-out: Proliferation in MiaPaca-2: IC50
Procedure: Protocol for Proliferation Assay
This assay is referred to as the “Proliferation Assay” or “Cell Viability Assay” throughout this application.
Cell lines: Human tumor-derived cell lines were purchased from American Type Culture Collection. Human tumor-derived pancreatic cancer cell line MiaPaca-2 (expressing KRAS G12C mutant) and Panc-1 (expressing KRas G12D mutant), and Human non-small cell lung cancer (NSCLC) cell line A549 (expressing KRas G12S mutant) were grown in complete DMEM-High Glucose medium. Human colon cancer cell line SW-620 (expressing KRas G12V mutant) was grown in RPMI 1640 medium. All cell lines were supplemented with penicillin (100 U/mL), streptomycin (100 μg/mL), and 10% heat-inactivated FBS at 37° C. in a humidified incubator with 5% CO2.
(§7) Method: Cells were plated at 2000 to 5000 cells/well density in 96-wells plate and cultured overnight. Small molecules to be tested were added to the cells in the final concentration of 10 μM in the presence of 0.3% DMSO and 10% FBS and incubated for 2-4 days at 37° C. in a humidified incubator with 5% CO2. For IC50 value determination, serial dilutions of compounds were added to cells under the same conditions.
Assay: At the end of the incubation period, cell viability was determined using the CellTiter 96® Aqueous One Solution Cell Proliferation Assay according to manufacturer specifications (Promega, Madison, WI). The percentage of small molecules inhibition of cellular proliferation was calculated from raw data.
Cell lines: these Human tumor-derived cell lines were purchased from American Type Culture Collection. Human tumor-derived pancreatic cancer cell line MiaPaca-2 (expressing KRAS G12C mutant) and Panc-1 (expressing KRas G12D mutant), and Human non-small cell lung cancer (NSCLC) cell line A549 (expressing KRas G12S mutant), and Human melanoma cell line A375 (wild type Kras) were grown in complete DMEM-High Glucose medium. Human tumor-derived pancreatic cancer cell lines SU86.86 (expressing KRas G12D mutant), BxPC3 (expressing wild type K-Ras), and Human non-small cell lung cancer (NSCLC) cell lines NCI-H441 (expressing KRas G12S mutant), NCI-H1975 (expressing wild type KRas), NCI-H358 (expressing KRas G12C mutant), NCI-H1299 (expressing NRas Q61H mutant), and Human colon cancer cell line SW-620 (expressing KRas G12V mutant), Human triple negative breast cancer cell line HCC-1806 (expressing wild type KRas), and Human tumor-derived multiple myeloma cell line MM.1R (expressing wild type KRAS), were grown in RPMI 1640 medium. Human tumor-derived breast cancer cell line BT-549 (expressing wild type KRAS) was grown in RPMI 1640 medium in the presence of 11.8U insulin. Human tumor-derived pancreatic cancer cell line HPAF-II (expressing KRas G12D mutant), Human triple negative breast cancer cell line BT-20 (expressing wild type KRas), and Human colon cancer cell line LS123 (expressing KRas G12S mutant), were grown in EMEM medium. Human tumor-derived pancreatic cancer cell line CF-PAC1 (expressing KRas G12V mutant) was frown in IMDM medium, and Human colon cancer cell line HT29 (expressing wild type KRas) was grown in McCoy's 5A medium. The colon cancer cell line GP2d (expressing KRas G12D mutant) was purchased from MilliporeSigma and grown in DMEM-High Glucose medium. All cell lines were supplemented with penicillin (100 U/mL), streptomycin (100 μg/mL), and 10% heat-inactivated FBS at 37° C. in a humidified incubator with 5% CO2.
as §7, with “that were” for “to be”, “FBS,” for “FBS”

SMILES	KRas wild type + SOS: % inh. (KRas wild type)	KRas wild type: % inh. (KRas wild type)	inhibition at 20 µM (Rac-1) [%]	KRas G12D mutant + SOS: % inh. (KRas G12D mutant)	KRas G12D mutant: % inh. (KRas G12D mutant)	IC50 [1] [µM]
Cc1c(-c2ccn(C3CC3)n2)cn2nc(-c3nccn3C)nc(Nc3ccccn3)c12 [Compound 143, 6-(1-Cyclopropyl-1H-pyrazol-3-yl)-5-methyl-2-(1-methyl-1H-imidazol-2-yl)-N-(pyridin-2-yl)pyrrolo[2,1-f][1,2,4]triazin-4-amine]	D (D = 76-100% inhibition)	D (D = 76-100% inhibition)	76 to 100	D (D = 76-100% inhibition)	D (D = 76-100% inhibition)	< 0.15
Cc1c(-c2ccn(C(C)C)n2)cn2nc(-c3nccn3C)nc(Nc3nccc(OCCN(C)C)n3)c12 [Compound 96, N-(4-(2-(Dimethylamino)ethoxy)pyrimidin-2-yl)-6-(1-isopropyl-1H-pyrazol-3-yl)-5-methyl-2-(1-methyl-1H-imidazol-2-yl)pyrrolo[2,1-f][1,2,4]triazin-4-amine]	D (D = 76-100% inhibition)	D (D = 76-100% inhibition)	76 to 100	D (D = 76-100% inhibition)	D (D = 76-100% inhibition)	0.15 to 0.5
Cc1c(-c2ccn(C)n2)cn2nc(-c3nccn3C)nc(Nc3cc(OC4CC4)ccn3)c12 [Compound 126, N-(4-Cyclopropoxypyridin-2-yl)-5-methyl-2-(1-methyl-1H-imidazol-2-yl)-6-(1-methyl-1H-pyrazol-3-yl)pyrrolo[2,1-f][1,2,4]triazin-4-amine]	A (A = 1-25% inhibition)	A (A = 1-25% inhibition)	26 to 49	B (B = 26-49% inhibition)	B (B = 26-49% inhibition)	< 0.15
COc1cc(Nc2nc(-c3nccn3C)nn3cc(-c4ccn(C5CC5)n4)c(C)c23)ncn1 [Compound 135, 6-(1-Cyclopropyl-1H-pyrazol-3-yl)-N-(6-methoxypyrimidin-4-yl)-5-methyl-2-(1-methyl-1H-imidazol-2-yl)pyrrolo[2,1-f][1,2,4]triazin-4-amine]	D (D = 76-100% inhibition)	D (D = 76-100% inhibition)	76 to 100	D (D = 76-100% inhibition)	D (D = 76-100% inhibition)	< 0.15
Cc1c(-c2ccn(C(C)C)n2)cn2nc(-c3ccccn3)nc(O)c12 [Compound 8, 6-(1-Isopropyl-1H-pyrazol-3-yl)-5-methyl-2-(pyridin-2-yl)pyrrolo[2,1-f][1,2,4]triazin-4-ol]	0 (0 = 0% inhibition)	A (A = 1-25% inhibition)	0	A (A = 1-25% inhibition)	0 (0 = 0% inhibition)	> 1
Cc1c(-c2ccn(C)n2)cn2nc(-c3nccn3C)nc(Nc3cnccn3)c12 [Compound 120, 5-Methyl-2-(1-methyl-1H-imidazol-2-yl)-6-(1-methyl-1H-pyrazol-3-yl)-N-(pyrazin-2-yl)pyrrolo[2,1-f][1,2,4]triazin-4-amine]	C (C = 50-75% inhibition)	A (A = 1-25% inhibition)	26 to 49	A (A = 1-25% inhibition)	B (B = 26-49% inhibition)	< 0.15
COc1cc(-c2cn3nc(-c4nccn4C)nc(N[C@H]4C[C@@H](OC)C4)c3c2C)ccn1 [Compound 162, N-((1s,3s)-3-Methoxycyclobutyl)-6-(2-methoxypyridin-4-yl)-5-methyl-2-(1-methyl-1H-imidazol-2-yl)pyrrolo[2,1-f][1,2,4]triazin-4-amine]	0 (0 = 0% inhibition)	A (A = 1-25% inhibition)	0	0 (0 = 0% inhibition)	0 (0 = 0% inhibition)	> 1
Cc1c(-c2ccn(C)n2)cn2nc(-c3nccn3C)nc(Nc3ccn(C4CC4)n3)c12 [Compound 111, N-(1-Cyclopropyl-1H-pyrazol-3-yl)-5-methyl-2-(1-methyl-1H-imidazol-2-yl)-6-(1-methyl-1H-pyrazol-3-yl)pyrrolo[2,1-f][1,2,4]triazin-4-amine]	A (A = 1-25% inhibition)	C (C = 50-75% inhibition)	26 to 49	B (B = 26-49% inhibition)	B (B = 26-49% inhibition)	0.15 to 0.5
Cc1c(-c2ccn(C3CC3)n2)cn2nc(-c3nccn3C)nc(Nc3cc(OCCN(C)C)ccn3)c12 [Compound 147, 6-(1-Cyclopropyl-1H-pyrazol-3-yl)-N-(4-(2-(dimethylamino)ethoxy)pyridin-2-yl)-5-methyl-2-(1-methyl-1H-imidazol-2-yl)pyrrolo[2,1-f][1,2,4]triazin-4-amine]			0			> 1
Cc1c(-c2ccn(C3CC3)n2)cn2nc(-c3nccn3C)nc(Nc3cc(OCCCN(C)C)ccn3)c12 [Compound 148, 6-(1-Cyclopropyl-1H-pyrazol-3-yl)-N-(4-(3-(dimethylamino)propoxy)pyridin-2-yl)-5-methyl-2-(1-methyl-1H-imidazol-2-yl)pyrrolo[2,1-f][1,2,4]triazin-4-amine]			0			> 1
